Legend:
[1] = Water solubility of the powder; assay type: physicochemical; conditions: in words
[2] = system: plasmid DNA damaged by OH° radical (hydrogen peroxide + UVB); assay: "3D" test (Damaged DNA Detection): protection of DNA against OH° radicals; assay type: biochemical; conditions: for Specific protection: OH° radical
Experimental: The free-radical-scavenging effects of the phloridzin-rich polyphenolic fractions obtained according to the process of the invention were measured in vitro by the “3D” test (Damaged DNA Detection, Analytical Biochemistry, (1995), pp. 37-42).
The principle is based on repairing DNA lesions, the damaged DNA being used as a marker of protective efficacy of the test molecules with respect to free OH^∘ radicals: the reduction in lesions observed on the DNA is correlated with the trapping of the free radicals.
This test carried out on plasmid DNA allows the detection of genotoxic agents at the early stage of the lesion-mutation-cancerization process. Molecules or mixtures with antioxidant or free-radical-scavenging properties, which can thus protect a human cell from oxidative damage caused by reactive oxygenated species (ROSs), can thus be detected.
The protocol was as follows: • the target DNA was adsorbed onto sensitized wells and then incubated with genotoxic agents in the presence or absence of the polyphenolic extract to be tested (dissolved in an ethanol solution at 2% or in DMSO) or in the presence of catechin (control). In this test, the OH^∘ radical produced by homolytic cleavage of hydrogen peroxide was used as DNA-damaging genotoxic agent. The hydrogen peroxide was added to the wells, which were then irradiated with UVB rays (700 J/m^2). Furthermore, a positive repair control consisting of a plasmid DNA predamaged with ultraviolet C radiation was added; • a step of washing with ultrapure water and then with a dioxane solution at 20% in ultrapure water for 5 minutes at 30° C. with gentle stirring made it possible to remove the non-specific interactions between the sample and the test, due to the presence of macromolecules such as proteins that may interfere with the repair signal; • a repair step was performed in the presence of purified cell extracts (which contain the active enzymes of the various DNA lesion repair pathways) and of biotin-coupled modified nucleotides (dUTP). The repair of the lesions involved a phase of excision of the lesions followed by a resynthesis of the DNA fragment or of excised bases. […] The light signal observed and read on the luminometer was proportional to the amount of lesions repaired.
The percentage of protection observed in the presence of ROSs was calculated as the relative reduction of the lesional effect due to the OH^∘ species, that is to say: % protection={[RLU oxidant−RLU (oxidant+sample)]/RLU oxidant}×100 • where RLU=relative light units (arbitrary units of quantity of light).
The specific percentage of protection was corrected by the percentage of non-specific inhibition measured on the samples predamaged with UVC. It is an indication of the free-radical-scavenging activity due to the only added extracts.
The IC50 is the concentration in mg/ml of test product which gives 50% protective activity against the genotoxic agent OH^∘. The lower the value, the greater the antioxidant activity of the test product.

Row | Water solubility [1] | Compound | Specific protection ([2]; concentration 0.016 mg/ml) | Specific protection ([2]; concentration 0.06 mg/ml) | Specific protection ([2]; concentration 0.25 mg/ml) | Specific protection ([2]; concentration 1 mg/ml) | IC50 ([2]; concentration giving 50% protective activity against the genotoxic agent OH°)
1 | very low solubility | O=C(CCc1ccc(O)cc1)c1c(O)cc(O)cc1O [phloretin] | – | – | – | – | –
2 | – | Catechin | 16% | 28% | 52% | 65% | 240 µg/mL

From patent US7427418B2, “Phloridzin-rich phenolic fraction and use thereof as a cosmetic, dietary or nutraceutical agent” (Diana Ingredients S.A., priority 2001, dated 2008)
